Data reported in patent US4378348A (priority 1979, dated 1983).

Experiment: in vivo
Settings: mouse, iv
Description: The substance of this invention was intravenously administered to male mice of DD strain weighing 20 to 21 g and checked for acute toxicity.

CN[C@H](CC(C)C)C(=O)N[C@H]1C(=O)N[C@@H](CC(N)=O)C(=O)N[C@H]2C(=O)N[C@H]3C(=O)N[C@H](C(=O)N[C@H](C(=O)O)c4cc(O)cc(O)c4-c4cc3ccc4O)[C@H](O)c3ccc(c(Cl)c3)Oc3cc2cc(c3O[C@@H]2O[C@H](CO)[C@@H](O)[C@H](O)[C@H]2O[C@H]2C[C@](C)(N)[C@H](O)[C@H](C)O2)Oc2ccc(cc2Cl)[C@H]1O [vancomycin]
LD50: 400 to 500 mg/kg
